According to publication PMC10196118, “Evidence for broad cross-reactivity of the SARS-CoV-2 NSP12-directed CD4^+ T-cell response with pre-primed responses directed against common cold coronaviruses” (Frontiers in Immunology, 2023):

Experiments:
[1] = system: CD4+ T cells; test: Peptide-specific CD4+ T-cell response: IFN-γ ELISpot validated by intracellular cytokine staining after in vitro expansion; format: cell-based, human; conditions: COVID-19 patients (acute or resolved, n = 27); peptide 10 µg/ml; share of individuals with a positive response
[2] = system: 11 DRB1-HLA molecules; test: In vitro HLA class II binding, number of DRB1 alleles bound; set-up: species or system human; conditions: number of the 11 DRB1-HLA molecules tested bound with an affinity of 1,000 nM or better (in vitro)
[3] = system: pre-cultured PBMCs (NSP12-specific T cells); test: IFN-γ ELISpot with single 15-mer peptides after 11–13 days in vitro peptide-pool T-cell expansion; format: cell-based, human; conditions: single NSP12 15-mer peptides
[4] = molecular target: HLA DRB1*07:01 (Homo sapiens, UniProt P01903+P01911, A100R/A102G/A103Q/D57E/D86V/E43K/F76Y/K127E/L162R/M171V/P40G/Q125H/Q99D/R33Q/R42Y/R54Q/S133A/S66F/T210M/V115G/Y107V/Y59L/Y89S); test: biochemical; format: binding; conditions: binder threshold 1,000 nM, read-out: In vitro (IC50 nM) DRB1*07:01
[5] = molecular target: HLA DRB1*01:01 (Homo sapiens, UniProt P01903+P01911, A100R/D57E/F55L/F60I/F76Y/I96L/L162R/M171V/P40L/Q125E/R42F/V115G/Y59C); test: biochemical; format: binding; conditions: binder threshold 1,000 nM, read-out: In vitro (IC50 nM) DRB1*01:01
[6] = molecular target: HLA DRB1*09:01 (Homo sapiens, UniProt P01903+P01911, A100R/A103E/D57H/D86V/F55Y/F60I/F76Y/I96F/K127E/L162R/M171V/P40D/Q125H/Q99R/R33Q/R42F/S133A/S66N/T210M/V115G/W38K/Y107V/Y59G/Y89S); test: biochemical; format: binding; conditions: binder threshold 1,000 nM, read-out: In vitro (IC50 nM) DRB1*09:01
[7] = molecular target: HLA DRB1*03:01 (Homo sapiens, UniProt P01903+P01911, A100K/A102G/A103R/A169T/F55Y/I96L/K41T/L162R/M171V/P40S/Q125H/Q178H/Q39Y/R42S/S66N/T106N/T262R/W38E/Y61H); test: biochemical; format: binding; conditions: binder threshold 1,000 nM, read-out: In vitro (IC50 nM) DRB1*03:01
HLA DRB1*03:01, sequence (P01903 26-254, other chains not shown): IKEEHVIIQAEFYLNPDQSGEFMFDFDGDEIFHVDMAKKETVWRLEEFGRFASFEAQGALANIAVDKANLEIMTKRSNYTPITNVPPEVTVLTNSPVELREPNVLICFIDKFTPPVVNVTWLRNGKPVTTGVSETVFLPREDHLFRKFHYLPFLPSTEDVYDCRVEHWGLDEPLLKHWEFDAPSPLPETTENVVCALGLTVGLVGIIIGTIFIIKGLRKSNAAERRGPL

[8] = molecular target: HLA DRB1*13:02 (Homo sapiens, UniProt P01903+P01911, A100E/A169T/K41T/L162R/M171V/P40S/Q125H/Q178H/Q39Y/Q99D/R42S/S66N/T262R/V115G/W38E/Y61H); test: biochemical; format: binding; conditions: binder threshold 1,000 nM, read-out: In vitro (IC50 nM) DRB1*13:02
HLA DRB1*13:02, sequence (P01903 26-254 limits assumed, other chains not shown): as the sequence (P01903 26-254, other chains not shown) above

[9] = molecular target: HLA DRB1*04:05 (Homo sapiens, UniProt P01903+P01911, A100R/A169T/D86S/F76Y/I96L/K127E/L162R/M171V/N62H/P40V/Q125Y/R42H/S133A/S149N/S66Y/V115G/V209L/W38E); test: biochemical; format: binding; conditions: binder threshold 1,000 nM, read-out: In vitro (IC50 nM) DRB1*04:05
[10] = molecular target: HLA DRB1*08:02 (Homo sapiens, UniProt P01903+P01911, A100R/A103L/A169T/F76Y/H45Y/I96F/K41T/L162R/M171V/P40S/Q125H/Q178H/Q39Y/Q99D/R218S/R42G/S66Y/V115G/W38E); test: biochemical; format: binding; conditions: binder threshold 1,000 nM, read-out: In vitro (IC50 nM) DRB1*08:02
[11] = molecular target: HLA DRB1*04:01 (Homo sapiens, UniProt P01903+P01911, A100K/A169T/F76Y/I96L/K127E/L162R/M171V/N62H/P40V/Q125Y/R42H/S133A/S149N/S66Y/V115G/V209L/W38E); test: biochemical; format: binding; conditions: binder threshold 1,000 nM, read-out: In vitro (IC50 nM) DRB1*04:01
[12] = molecular target: HLA DRB1*15:01 (Homo sapiens, UniProt P01903+P01911); test: biochemical; format: binding; conditions: binder threshold 1,000 nM, read-out: In vitro (IC50 nM) DRB1*15:01
[13] = molecular target: HLA DRB1*12:01 (Homo sapiens, UniProt P01903+P01911, A100R/A169T/D57E/D86V/F55L/H45Y/K41T/L162R/M171V/P40S/Q125H/Q178H/Q39Y/Q99D/R42G/S66L/T262R/V114A/V67L/W38E/Y59H/Y61H/Y89S); test: biochemical; format: binding; conditions: binder threshold 1,000 nM, read-out: In vitro (IC50 nM) DRB1*12:01
[14] = molecular target: HLA DRB1*11:01 (Homo sapiens, UniProt P01903+P01911, A100R/A169T/A87E/I96F/K41T/L162R/M171V/P40S/Q125H/Q178H/Q39Y/Q99D/R42S/S66Y/T262R/V115G/W38E); test: biochemical; format: binding; conditions: binder threshold 1,000 nM, read-out: In vitro (IC50 nM) DRB1*11:01
HLA DRB1*11:01, sequence (P01903 26-254, other chains not shown): as above

SMILES | IC50 [4] [nM] | IC50 [5] [nM] | IC50 [6] [nM] | IC50 [7] [nM] | IC50 [8] [nM] | IC50 [9] [nM] | IC50 [10] [nM] | IC50 [11] [nM] | IC50 [12] [nM] | IC50 [13] [nM] | IC50 [14] [nM] | other results
CC(C)C[C@H](NC(=O)[C@H](CCCNC(=N)N)NC(=O)[C@H](Cc1ccc(O)cc1)NC(=O)[C@H](Cc1ccccc1)NC(=O)[C@H](CCCNC(=N)N)NC(=O)[C@H](Cc1c[nH]cn1)NC(=O)[C@H](CO)NC(=O)[C@H](CC(C)C)NC(=O)[C@H](CO)NC(=O)[C@@H](N)CS)C(=O)N[C@@H](C)C(=O)N[C@@H](CC(N)=O)C(=O)N[C@@H](CCC(=O)O)C(=O)N[C@@H](CS)C(=O)N[C@@H](C)C(=O)O [NSP12_130] |  |  |  |  |  |  |  |  |  |  |  | RF (response frequency), CD4+ T-cell response [1]: 26%; Alleles bound [2]: 8; peptide-specific response, donor HH-N12-18, post COVID-19 ([3]; donor HH-N12-18, sample post COVID-19): 0; peptide-specific response, donor HH-N12-18, pre COVID-19 ([3]; donor HH-N12-18, sample pre COVID-19): 0; peptide-specific response, donor HH-N12-34, post COVID-19 ([3]; donor HH-N12-34, sample post COVID-19): 0.031; peptide-specific response, donor HH-N12-34, pre COVID-19 ([3]; donor HH-N12-34, sample pre COVID-19): 0.09; peptide-specific response, donor HH-N12-35, post COVID-19 ([3]; donor HH-N12-35, sample post COVID-19): 0; peptide-specific response, donor HH-N12-35, pre COVID-19 ([3]; donor HH-N12-35, sample pre COVID-19): 0; peptide-specific response, donor HH-N12-36, post COVID-19 ([3]; donor HH-N12-36, sample post COVID-19): 0.06; peptide-specific response, donor HH-N12-36, pre COVID-19 ([3]; donor HH-N12-36, sample pre COVID-19): 0; peptide-specific response, donor HH-N12-37, post COVID-19 ([3]; donor HH-N12-37, sample post COVID-19): 0.032; peptide-specific response, donor HH-N12-37, pre COVID-19 ([3]; donor HH-N12-37, sample pre COVID-19): 0
CC[C@H](C)[C@H](NC(=O)[C@@H](NC(=O)[C@@H]1CCCN1C(=O)[C@@H](NC(=O)[C@@H](NC(=O)[C@H](CC(N)=O)NC(=O)[C@H](CCCNC(=N)N)NC(=O)[C@H](CCCCN)NC(=O)[C@@H](NC(=O)[C@H](Cc1ccc(O)cc1)NC(=O)[C@H](C)NC(=O)[C@H](Cc1ccccc1)NC(=O)[C@H](CC(C)C)NC(=O)[C@H](C)N)[C@@H](C)O)C(C)C)[C@@H](C)CC)[C@@H](C)O)C(=O)N[C@H](C(=O)O)[C@@H](C)O [NSP12_106] | 1.6 | 7360 | 52 | 709 | 32 | 13000 | 190 | 3660 | 770 | 756 | 6.6 | 
CC[C@H](C)[C@H](NC(=O)[C@H](CCSC)NC(=O)[C@H](CCSC)NC(=O)[C@H](CO)NC(=O)[C@H](Cc1ccccc1)NC(=O)[C@H](Cc1c[nH]cn1)NC(=O)[C@H](CCCCN)NC(=O)[C@H](CCCNC(=N)N)NC(=O)[C@H](CC(C)C)NC(=O)[C@H](Cc1ccc(O)cc1)NC(=O)[C@H](C)NC(=O)[C@@H](N)Cc1ccc(O)cc1)C(=O)N[C@@H](CC(C)C)C(=O)N[C@@H](CO)C(=O)N[C@@H](CC(=O)O)C(=O)O [Peptide 150] | 0.73 | 495 | 4.8 | 5020 | 755 | 318 | 138 | 102 | 0.23 | 96 | 7.9 | 
CC(C)C[C@H](NC(=O)[C@H](CCCNC(=N)N)NC(=O)[C@H](Cc1ccc(O)cc1)NC(=O)[C@H](Cc1ccccc1)NC(=O)[C@@H](N)CCCNC(=N)N)C(=O)N[C@@H](C)C(=O)N[C@@H](CC(N)=O)C(=O)N[C@@H](CCC(=O)O)C(=O)N[C@@H](CS)C(=O)N[C@@H](C)C(=O)N[C@@H](CCC(N)=O)C(=O)N[C@H](C(=O)N[C@@H](CC(C)C)C(=O)N[C@@H](CO)C(=O)N[C@@H](CCC(=O)O)C(=O)O)C(C)C [NSP12_131] | 279 | 53 | 48 | 8410 | 23800 | 270 | 2350 | 27 | 611 | 6320 | 367 | 
